# Molecular target: T1, AII receptor (Bos taurus, UniProt P25104)
# T1 construct: Tissue of bovine adrenal cortex was finely cut and suspended; from tissue; host or cells: bovine adrenal cortex membrane fraction
# T1 sequence (P25104 1-359): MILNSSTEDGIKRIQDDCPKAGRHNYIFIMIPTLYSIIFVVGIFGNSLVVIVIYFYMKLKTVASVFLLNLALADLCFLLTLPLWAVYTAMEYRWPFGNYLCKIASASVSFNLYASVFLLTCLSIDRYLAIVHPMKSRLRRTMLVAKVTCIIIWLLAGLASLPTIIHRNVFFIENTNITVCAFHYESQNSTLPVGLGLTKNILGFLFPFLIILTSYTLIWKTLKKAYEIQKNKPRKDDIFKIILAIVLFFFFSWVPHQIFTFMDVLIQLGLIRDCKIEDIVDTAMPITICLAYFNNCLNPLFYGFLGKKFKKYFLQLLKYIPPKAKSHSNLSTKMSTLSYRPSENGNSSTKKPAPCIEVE
# Test: Receptor binding test using bovine adrenal cortex ([125I]AII binding)
# Conditions: test compound 0.1 µM; receptor binding of [125I]AII (2.5 × 10^-10M); bovine adrenal cortex membranes; room temperature, 2 hours; 0.1 µM
# Experimental: Receptor binding test using bovine adrenal cortex
# Tissue of bovine adrenal cortex was finely cut and suspended in a 0.25M sucrose solution containing NaHCO3, ethylenediaminetetraacetic acid (EDTA), leupepsin, pepstatin A and phenylmethanesulfonyl fluoride, followed by homogenization. The homogenate was centrifuged at 3,000 rpm for 10 minutes and the supernatant was centrifuged at 9,000 rpm. Then, the supernatant was further centrifuged at 30,000 rpm for 60 minutes and the precipitate was suspended in NaHCO3-EDTA solution, followed by centrifugation at 30,000 rpm for 60 minutes. The resulting precipitate was suspended in a phosphate buffer and the suspension was used for the binding test as an AII receptor source.
# To a test compound or a solvent were added 250 µl of the AII receptor solution prepared above, 250 µl of Tris 50 mM buffer containing 0.2% bovine serum albumin (BSA), and 20 µl of [^125I]AII (2.5 × 10^-10M). The mixture was allowed to stand at room temperature for 2 hours and then filtered through a glass fiber filter (GF/B Wattman). The filter was placed in a test tube and the radioactivity was measured using a gamma-counter.
# The inhibitory activity (inhibition rate) of the test compound (0.1 µM) against the receptor binding of [^125I]AII was calculated by the following equation. Inhibition Rate (%) =(1-((Binding Amount in the Presence of a Test Compound)-(Nonspecific Binding Amount))/((Total Binding Amount)-(Nonspecific Binding Amount)))× 100 [formula]
# The binding amount in the presence of a test compound is the amount of radioactivity of [^125I]AII bound in the presence of a test compound (0.1 µM).
# The total binding amount is the amount of radioactivity of [^125I]AII bound in the absence of a test compound.
# The nonspecific binding amount is the amount of radioactivity of [^125I]AII bound in the presence of 1 µM AII.
row,Inhibition Rate (%),Compound
1,87,"CCc1nc2c(C)cc(C)nc2n1Cc1ccc2c(c1)OCc1ccccc1C2=Cc1nnn[nH]1 [Compound 6-E, 3-(5,7-Dimethyl-2-ethyl-3H-imidazo[4,5-b]pyridin-3-yl)methyl-11-(1H-tetrazol-5-yl)methylene-6,11-dihydrodibenz[b,e]oxepine]"
2,88,"CCc1nc2c(C)cc(C)nc2n1Cc1ccc2c(c1)CCc1ccccc1C2=Cc1nnn[nH]1 (single isomer, unassigned) [Compound 20B, 2-(5,7-Dimethyl-2-ethyl-3H-imidazo[4,5-b]pyridin-3-yl)methyl-5-(1H-tetrazol-5-yl)methylene-5H-10,11-dihydrodibenzo[a,d]cycloheptene]"

# Same assay, conditions: test compound 0.1 µM; receptor binding of [125I]AII (2.5 × 10^-10M); bovine adrenal cortex membranes; room temperature, 2 hours; listed as 6-Z*, 0.1 µM
row,Inhibition Rate (%),Compound
1,66,"CCc1nc2c(C)cc(C)nc2n1Cc1ccc2c(c1)OCc1ccccc1C2=Cc1nnn[nH]1 [Compound 6-Z, 3-(5,7-Dimethyl-2-ethyl-3H-imidazo[4,5-b]pyridin-3-yl)methyl-11-(1H-tetrazol-5-yl)methylene-6,11-dihydrodibenz[b,e]oxepine]"

# Same assay, conditions: test compound 0.1 µM; receptor binding of [125I]AII (2.5 × 10^-10M); bovine adrenal cortex membranes; room temperature, 2 hours; read-out: Inhibition Rate (%)
row,Compound,inhibition at 0.1 µM [%]
1,"CCCCC(=O)N(Cc1ccc2c(c1)CCc1ccccc1N2Cc1nnn[nH]1)C(C(=O)O)C(C)C (centres unmarked) [Compound 40, N-[[5-(1H-Tetrazol-5-yl)methyl-5H-10,11-dihydrodibenz[b,f]azepin-2-yl]methyl]-N-valerylvaline]",95
2,"CCc1nc2c(C)cc(C)nc2n1Cc1ccc2c(c1)COc1ccccc1C2=Cc1nnn[nH]1 [Compound 18-Z, 8-(5,7-Dimethyl-2-ethyl-3H-imidazo[4,5-b]pyridin-3-yl)methyl-11-(1H-tetrazol-5-yl)methylene-6,11-dihydrodibenz[b,e]oxepine]",81
3,"CCc1nc2c(C)cc(C)nc2n1Cc1ccc2c(c1)OCc1ccccc1C2Cc1nnn[nH]1 (centres unmarked) [Compound 25, 3-(5,7-Dimethyl-2-ethyl-3H-imidazo[4,5-b]pyridin-3-yl)methyl-11-(1H-tetrazol-5-yl)methyl-6,11-dihydrodibenz[b,e]oxepine]",94
4,"CCCc1nc2c(C)cccc2n1Cc1ccc2c(c1)OCc1ccccc1C2=CC(=O)O [Compound 1, [3-(4-Methyl-2-propylbenzimidazol-1-yl)methyl-6,11-dihydrodibenz[b,e]oxepin-11-yliden]acetic acid]",43
5,"CCc1nc2c(C)cc(C)nc2n1Cc1ccc2c(c1)OCc1ccccc1C2=CC(=O)O [Compound 3, [3-(5,7-Dimethyl-2-ethyl-3H-imidazo[4,5-b]pyridin-3-yl)methyl-6,11-dihydrodibenz[b,e]oxepin-11-yliden]acetic acid]",78
6,"CCc1nc2c(C)cc(C)nc2n1Cc1ccc2c(c1)OCc1ccsc1C2=CC(=O)O [Compound 11, [7-(5,7-Dimethyl-2-ethyl-3H-imidazo[4,5-b]pyridin-3-yl)methyl-4,10-dihydrothieno[3,2-c][1]benzoxepin-10-yliden]acetic acid]",84
7,"CCc1nc2c(C)cc(C)nc2n1Cc1ccc2c(c1)CCc1ccccc1C2Cc1nnn[nH]1 (centres unmarked) [Compound 28, 2-(5,7-Dimethyl-2-ethyl-3H-imidazo[4,5-b]pyridin-3-yl)methyl-5-(1H-tetrazol-5-yl)methyl-5H-10,11-dihydrodibenzo[a,d]cycloheptene]",83
8,"CCc1nc2c(C)cc(C)nc2n1Cc1ccc2c(c1)C=Cc1c(Br)cccc1C2=Cc1nnn[nH]1 [Compound 19, 1-Bromo-8-(5,7-dimethyl-2-ethyl-3H-imidazo[4,5-b]pyridin-3-yl)methyl-5-(1H-tetrazol-5-yl)methylene-5H-dibenzo[a,d]cycloheptene]",14
9,"Cc1cc(C)c2nc(C3CC3)n(Cc3ccc4c(c3)CCc3ccccc3C4Cc3nnn[nH]3)c2n1 (centres unmarked) [Compound 29, 2-(5,7-Dimethyl-2-cyclopropyl-3H-imidazo[4,5-b]pyridin-3-yl)methyl-5-(1H-tetrazol-5-yl)methyl-5H-10,11-dihydrodibenzo[a,d]cycloheptene]",92
10,"Cc1cc(C)c2nc(C3CC3)n(Cc3ccc4c(c3)CCc3ccccc3N4Cc3nnn[nH]3)c2n1 [Compound 34, 2-(5,7-Dimethyl-2-cyclopropyl-3H-imidazo[4,5-b]pyridin-3-yl)methyl-5-(1H-tetrazol-5-yl)methyl-5H-10,11-dihydrodibenz[b,f]azepine]",97
11,"CCc1nc2c(C)cc(C)nc2n1Cc1ccc2c(c1)CCc1ccccc1N2Cc1ccccc1C(=O)O [Compound 38, 2-[[2-(5,7-Dimethyl-2-ethyl-3H-imidazo[4,5-b]pyridin-3-yl)methyl-5H-10,11-dihydrodibenz[b,f]azepin-5-yl]methyl]benzoic acid]",68
12,"CCc1nc2c(C)cc(C)nc2n1Cc1ccc2c(c1)C=Cc1ccc(F)cc1C2=CC(=O)O [Compound 4, [2-(5,7-Dimethyl-2-ethyl-3H-imidazo[4,5-b]pyridin-3-yl)methyl-7-fluoro-5H-dibenzo[a,d]cyclohepten-5-yliden]acetic acid]",77
13,"CCc1nc2c(C)cc(C)nc2n1Cc1ccc2c(c1)CCc1ccccc1C2=Cc1nnn[nH]1 (single isomer, unassigned) [Compound 20A, 2-(5,7-Dimethyl-2-ethyl-3H-imidazo[4,5-b]pyridin-3-yl)methyl-5-(1H-tetrazol-5-yl)methylene-5H-10,11-dihydrodibenzo[a,d]cycloheptene]",70

# Now from value to compound:
row,inhibition at 0.1 µM [%],Compound
1,91,"CCc1nc2c(C)cc(C)nc2n1Cc1ccc2c(c1)CCc1ccccc1C2=CC(=O)O [Compound 16, [2-(5,7-Dimethyl-2-ethyl-3H-imidazo[4,5-b]pyridin-3-yl)methyl-5H-10,11-dihydrodibenzo[a,d]cyclohepten-5-yliden]acetic acid]"
2,72,"CCc1nc2c(C)cc(C)nc2n1Cc1ccc2c(c1)C=Cc1sccc1C2=CC(=O)O [Compound 12, [7-(5,7-Dimethyl-2-ethyl-3H-imidazo[4,5-b]pyridin-3-yl)methyl-4H-benzo[4,5]cyclohepte[1,2-b]thiophen-4-yliden]acetic acid]"
3,80,"CCc1nc2c(C)cc(C)nc2n1Cc1ccc2c(c1)SCc1ccccc1C2=Cc1nnn[nH]1 [Compound 22-E, 3-(5,7-Dimethyl-2-ethyl-3H-imidazo[4,5-b]pyridin-3-yl)methyl-11-(1H-tetrazol-5-yl)methylene-6,11-dihydrodibenzo[b,e]thiepine]"
4,85,"CCc1nc2c(C)cc(C)nc2n1Cc1ccc2c(c1)c1ccccc1n2CCc1nnn[nH]1 [Compound 42, 3-(5,7-Dimethyl-2-ethyl-3H-imidazo[4,5-b]pyridin-3-yl)methyl-9-[2-(1H-tetrazol-5-yl)ethyl]carbazole]"
5,52,"CCc1nc2c(C)cc(C)nc2n1Cc1ccc2c(c1)OCc1ccc(Br)cc1C2=CC(=O)O [Compound 7, [9-Bromo-3-(5,7-dimethyl-2-ethyl-3H-imidazo[4,5-b]pyridin-3-yl)methyl-6,11-dihydrodibenz[b,e]oxepin-11-yliden]acetic acid]"
6,88,"CCc1nc2c(C)cc(C)nc2n1Cc1ccc2c(c1)CCc1ccccc1N2CC(=O)O [Compound 33, 5-Carboxymethyl-2-(5,7-dimethyl-2-ethyl-3H-imidazo[4,5-b]pyridin-3-yl)methyl-5H-10,11-dihydrodibenz[b,f]azepine]"
7,61,"CCc1nc2c(C)cc(C)nc2n1Cc1ccc2c(c1)OCc1ccccc1C2CC(=O)O (centres unmarked) [Compound 23, [3-(5,7-Dimethyl-2-ethyl-3H-imidazo[4,5-b]pyridin-3-yl)methyl-6,11-dihydrodibenz[b,e]oxepin-11-yl]acetic acid]"
